melting point [°C] | SMILES
> 260 | Cn1cncc1C(O)(c1ccc(Cl)cc1)c1ccc2c(c1)c(-c1cccs1)cc(=O)n2C (centres unmarked) [Example B2, 6-[(4-chlorophenyl)hydroxy(1-methyl-1H-imidazol-5-yl)methyl]-1-methyl-4-(2-thienyl)-2(1H)-quinolinone]
200 | Cn1cncc1C(O)(c1ccc(Cl)cc1)c1ccc2c(c1)c(-c1nc(-c3ccccc3)cs1)cc(=O)n2C (centres unmarked) [Example B4, 6-[(4-chlorophenyl)hydroxy(1-methyl-1H-imidazol-5-yl)methyl]-1-methyl-4-(4-phenyl-2-thiazolyl)-2(1H)-quinolinone]
171 | Cn1cncc1C(c1ccc(Cl)cc1)c1ccc2c(c1)c(-c1nc(-c3ccccc3)cs1)cc(=O)n2C (centres unmarked) [Example B6, 6-[(4-chlorophenyl)(1-methyl-1H-imidazol-5-yl)methyl]-1-methyl-4-(4-phenyl-2-thiazolyl)-2(1H)-quinolinone]
237 | Cn1cncc1C(N)(c1ccc(Cl)cc1)c1ccc2c(c1)c(-c1nc(-c3ccccc3)cs1)cc(=O)n2C (centres unmarked) [Example B7, 6-[amino(4-chlorophenyl)(1-methyl-1H-imidazol-5-yl)methyl]-1-methyl-4-(4-phenyl-2-thiazolyl)-2(1H)-quinolinone]
244 | CC(=O)NC(c1ccc(Cl)cc1)(c1ccc2c(c1)c(-c1nc(-c3ccccc3)cs1)cc(=O)n2C)c1cncn1C (centres unmarked) [Example B8, N-[(4-chlorophenyl)[1,2-dihydro-1-methyl-2-oxo-4-(4-phenyl-2-thiazolyl)-6-quinolinyl](1-methyl-1H-imidazol-5-yl)methyl]-acetamide]
190 | Cn1c(=O)cc(-c2nc(-c3ccccc3)cs2)c2cc(C(c3ccc(Cl)cc3)c3cnc(-c4ccccc4)[nH]3)ccc21 (centres unmarked) [Example B9 (F2), 6-[(4-chlorophenyl)(2-phenyl-1H-imidazol-5-yl)methyl]-1-methyl-4-(4-phenyl-2-thiazolyl)-2(1H)-quinolinone]

Second part, the compound before the results:

SMILES | melting point [°C]
O=c1cc(-n2ccnc2)c2cc(C(c3ccc(Cl)cc3)n3ccnc3)ccc2[nH]1 (centres unmarked) [Example B1, 6-[(4-chlorophenyl)-1H-imidazol-1-ylmethyl]-4-(1H-imidazol-1-yl)-2(1H)-quinolinone] | 242.3
Cn1cncc1C(O)(c1ccc(Cl)cc1)c1ccc2[nH]c(=O)cc(-c3cccnc3)c2c1 (centres unmarked) [Example B3, 6-[(4-chlorophenyl)hydroxy(1-methyl-1H-imidazol-5-yl)methyl]-4-(3-pyridinyl)-2(1H)-quinolinone] | > 250
Cn1cncc1C(O)(c1ccc(Cl)cc1)c1ccc2c(c1)c(CCc1ccc(Cl)s1)cc(=O)n2C (centres unmarked) [Example B10, 6-[(4-chlorophenyl)hydroxy(1-methyl-1H-imidazol-5-yl)methyl]-4-[2-(5-chloro-2-thienyl)ethyl]-1-methyl-2(1H)-quinolinone] | 128
Cn1c(=O)cc(CCc2ccc(Cl)s2)c2cc(C(O)(c3ccc(Cl)cc3)c3cccnc3)ccc21 (centres unmarked) [Example B13, 6-[(4-chlorophenyl)hydroxy-3-pyridinylmethyl]-4-[2-(5-chloro-2-thienyl)ethyl]-1-methyl-2(1H)-quinolinone] | 110
Cn1c(=O)cc(CCc2ccc(Cl)s2)c2cc(C(N)(c3ccc(Cl)cc3)c3cccnc3)ccc21 (centres unmarked) [Example B14, 6-[amino(4-chlorophenyl)-3-pyridinylmethyl]-4-[2-(5-chloro-2-thienyl)ethyl]-1-methyl-2(1H)-quinolinone] | 100

Source: US20060135769A1, “Farnesyl transferase inhibiting 4-heterocyclyl-quinoline and quinazoline derivatives” (priority 2000, published 2006)
